Key:
[1] = system: male ICR mice; experiment: Toxicity test: oral administration to mice, survival and LD50; format: in vivo; details: for Number of living mice: among 10 head, observation after two weeks; for LD₅₀ values: oral, mice, in words, compared with the known absorption accelerator
Procedure: A known absorption accelerator, N-(α-fluoro-4-methylcinnamoyl)-L-phenylalanine, and the two absorption accelerators of this invention were each suspended in 0.5% solution of CMC sodium salt at different concentrations, each suspension was orally administered to male ICR mice of 4-week age ( each group consisting of 10 head ), and LD₅₀ values were measured based on the observations after two weeks. The result is summarized in Table 2, in which the figures show the number of living mice when 1.0 g/Kg and 3.0 g/Kg of the compounds were administered.

[2] = Activity test using mice: oral insulin co-administered with absorption accelerator, blood glucose and blood insulin measured; format: in vivo, female ICR-CDI mice; details: insulin 0.5 U/10 g + absorption accelerator 3 mg/10 g, vs control group
Procedure: Each of the absorption accelerators prepared above was suspended in 0.5% CMC/0.05M Tris-HCl buffer ( pH 7.8 ), insulin was admixed to this suspension, and the resulting mixture was orally administered to a group of female ICR-CDI mice ( five head of 5- to 7-week age ) fasted for 18 hours ( insulin: 0.5 U/10 g, absorption accelerator: 3 mg/10 g ). The rate of reduction in blood glucose (%) and the factor of increase in the insuline level in the blood, in comparison with the data of the control group, were measured at definite intervals.

[3] = Activity test using dogs: oral gelatin capsules of insulin plus absorption accelerator, serum glucose measured; format: in vivo, male beagles; details: 50 U/Kg insulin + 25 mg/Kg sodium salt of absorption accelerator, average of two dogs, compared with N-(α-fluoro-4-methylcinnamoyl)-L-phenylalanine
Procedure: An absorption acceleration test was conducted using dogs to compare the absorption accelerators of this invention with a known absorption accelerator, N-(α-fluoro-4-methylcinnamoyl)-L-phenylalanine.
Gelatin capsules containing 50 U/Kg insulin and 25 mg/Kg sodium salt of absorption accelerator were orally administered to male beagles of 6- to 8-month age fasted for 18 hours. In this test, the same two dogs were used for each of test samples.
A blood sample was taken from each dog at definite intervals from the peripheral vein in a paw, the amount of glucose in the serum was measured, and the average of two head was calculated. The result is sumarized in the figure.

| SMILES | Number of living mice ([1]; 1.0 g/Kg oral) | Number of living mice ([1]; 3.0 g/Kg oral) | Factor of increase in blood-insulin level ([2]; 15 minutes) | Rate of reduction in blood glucose level ([2]; 15 minutes) | Factor of increase in blood-insulin level ([2]; 30 minutes) | Rate of reduction in blood glucose level ([2]; 30 minutes) | Rate of reduction in blood glucose level ([2]; 60 minutes) | Factor of increase in blood-insulin level ([2]; 60 minutes, "-" = no increase in blood insulin level was observed) | LD₅₀ values [1] | effect of reducing the glucose level in the serum [3] |
| --- | --- | --- | --- | --- | --- | --- | --- | --- | --- | --- |
| Cc1ccc(C=C(F)C(=O)N[C@@H](Cc2ccccc2)C(=O)O)cc1 [N-(α-fluoro-4-methylcinnamoyl)-L-phenylalanine, reference compound] | 10 | 6 |  |  |  |  |  |  |  |  |
| Cc1ccc(C(Cl)=CC(=O)N[C@@H](Cc2ccccc2)C(=O)O)cc1 [N-(β-chloro-4-methylcinnamoyl)-L-phenylalanine] | 10 | 10 | 2) 10.5 | 1) 42.1% | 2) 2.0 | 1) 21.6% | 1) 12.2% | 2) 2.1 | equal to, or higher than, that of the known absorption accelerator | far higher effect of reducing the glucose level in the serum over longer periods |
| Cc1ccc(C(Cl)=CC(=O)N[C@H](Cc2ccccc2)C(=O)O)cc1 [N-(β-chloro-4-methylcinnamoyl)-D-phenylalanine] | 10 | 6 | 2) 2.1 | 1) 35.7% | 2) 3.3 | 1) 47.8% | 1) 42.8% |  | equal to, or higher than, that of the known absorption accelerator | far higher effect of reducing the glucose level in the serum over longer periods |

— patent EP0317105A2, “Phenylalanine derivative and its uses” (AJINOMOTO CO., INC., priority 1987, dated 1989)
